Experimental data published in patent US20240254119A1 (THIRD HARMONIC BIO, INC., priority 2022, published 2024).

Experiments:
[1] = target: T1, wtKIT (Homo sapiens, UniProt P10721); assay: HTRF biochemical assay, wtKIT (phosphorylation of a peptide substrate); details: Table 4
T1 construct: 1888289AM in the reaction mixtures
Outline: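 HTRF read-out of FAM-peptide (1 µM) phosphorylation after anti-phosphotyrosine antibody addition and EDTA quench. Reaction: 5.0 nM wtKIT, 400 µM ATP, 10 mM Mn2+, HEPES pH 7.5, 1% DMSO, 3 h, 25 °C; optional enzyme-compound preincubation; enzyme level set for 10-20% conversion.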

[2] = target: T2, CSF-1R (Homo sapiens, UniProt P07333); assay: Caliper biochemical assay, CSF-1R; details: Table 6
T2 construct: purchased Invitrogen PV3249 (lot 662393N)
T2 sequence (P07333 20-972): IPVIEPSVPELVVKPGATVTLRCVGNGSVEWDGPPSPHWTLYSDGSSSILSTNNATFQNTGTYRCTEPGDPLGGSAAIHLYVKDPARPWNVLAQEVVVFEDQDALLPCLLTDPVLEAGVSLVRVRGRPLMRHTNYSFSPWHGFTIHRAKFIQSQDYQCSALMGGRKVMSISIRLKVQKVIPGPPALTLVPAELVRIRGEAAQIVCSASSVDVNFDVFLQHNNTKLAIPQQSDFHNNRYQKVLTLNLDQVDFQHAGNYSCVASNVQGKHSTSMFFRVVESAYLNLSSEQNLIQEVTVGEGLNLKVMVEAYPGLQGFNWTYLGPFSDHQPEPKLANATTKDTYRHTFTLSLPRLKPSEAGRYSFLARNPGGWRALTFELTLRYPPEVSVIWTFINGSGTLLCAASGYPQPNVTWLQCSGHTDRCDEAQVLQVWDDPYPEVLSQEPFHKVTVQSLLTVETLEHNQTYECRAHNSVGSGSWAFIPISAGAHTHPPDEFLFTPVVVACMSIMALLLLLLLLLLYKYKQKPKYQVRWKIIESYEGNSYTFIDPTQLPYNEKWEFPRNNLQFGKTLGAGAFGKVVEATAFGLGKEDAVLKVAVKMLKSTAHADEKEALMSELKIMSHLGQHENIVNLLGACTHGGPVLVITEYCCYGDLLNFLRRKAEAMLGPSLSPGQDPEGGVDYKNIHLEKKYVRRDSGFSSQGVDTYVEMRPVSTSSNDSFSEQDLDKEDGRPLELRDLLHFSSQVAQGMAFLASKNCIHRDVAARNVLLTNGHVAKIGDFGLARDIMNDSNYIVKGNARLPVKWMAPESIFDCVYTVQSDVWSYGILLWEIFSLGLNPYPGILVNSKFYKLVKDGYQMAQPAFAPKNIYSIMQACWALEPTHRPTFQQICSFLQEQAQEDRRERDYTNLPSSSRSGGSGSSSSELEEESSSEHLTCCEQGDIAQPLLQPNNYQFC
Method: (§1) Enzyme, substrate, and cofactors (ATP and Mn^2+) are combined in a well of a microtiter plate and incubated for 3 hours at 25° C. At the end of the incubation, the reaction is quenched by the addition of an EDTA-containing buffer. Substrate and product are separated electrophoretically using the microfluidic-based LabChip 3000 Drug Discovery System from Caliper Life Sciences* and quantitated by fluorescence intensity.
(§2) The substrate used in the CSF-1R and PDGFRα assay is FAM-[…]-CONH2 (FAM is carboxyfluorescein). Peptide should be >95% purity. The substrate for the KIT assay is FAM-[…]-NH2.
(§3) • 1. To a well of a 384-well plate add 5 μL of 2× enzyme buffer (or control) • 2. Add 100 nL of 100× compound. • 3. Add 5 μL of 2× substrate buffer. • 4. Incubate plate at 25° C. for 3 hours. • 5. Add 10 uL of […]. • 6. Read plate LabChip 3000 Drug Discovery System
(§4) • 3 hours at 25° C. where 100% Inhibitor: No enzyme.

[3] = target: T1, wtKIT; assay: Caliper biochemical assay, wtKIT; details: Table 6, read-out: KIT Biochemical IC50 avg
Outline: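 Mobility-shift read-out: after EDTA stop, fluorescent peptide substrate and product resolved electrophoretically on LabChip 3000. Reaction ran 3 h at 25° C with 400 μM ATP, Mn^2+ cofactor, 5.0 nM wtKIT, 1 μM FAM-peptide, pH 7.5 HEPES buffer; no-enzyme wells defined full inhibition.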

[4] = Kinetic solubility assay; assay type: physicochemical; details: kinetic solubility, 50 mM PB (pH 7.4), shaken 24 hours at RT
Outline: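 Concentration in the filtrate was determined by UPLC-UV or HPLC-UV with a standard curve. Before that, compound (10 mM DMSO stock) in 50 mM PB at pH 7.4 was agitated 24 h at room temperature, then PTFE-filtered with centrifugation.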

[5] = target: T3, PDGFRα (Homo sapiens, UniProt P16234); assay: Caliper biochemical assay, PDGFRα; details: Table 6
T3 construct: purchased Millipore 14-467 (lot 26321_ACTI)
T3 sequence (P16234 24-1089): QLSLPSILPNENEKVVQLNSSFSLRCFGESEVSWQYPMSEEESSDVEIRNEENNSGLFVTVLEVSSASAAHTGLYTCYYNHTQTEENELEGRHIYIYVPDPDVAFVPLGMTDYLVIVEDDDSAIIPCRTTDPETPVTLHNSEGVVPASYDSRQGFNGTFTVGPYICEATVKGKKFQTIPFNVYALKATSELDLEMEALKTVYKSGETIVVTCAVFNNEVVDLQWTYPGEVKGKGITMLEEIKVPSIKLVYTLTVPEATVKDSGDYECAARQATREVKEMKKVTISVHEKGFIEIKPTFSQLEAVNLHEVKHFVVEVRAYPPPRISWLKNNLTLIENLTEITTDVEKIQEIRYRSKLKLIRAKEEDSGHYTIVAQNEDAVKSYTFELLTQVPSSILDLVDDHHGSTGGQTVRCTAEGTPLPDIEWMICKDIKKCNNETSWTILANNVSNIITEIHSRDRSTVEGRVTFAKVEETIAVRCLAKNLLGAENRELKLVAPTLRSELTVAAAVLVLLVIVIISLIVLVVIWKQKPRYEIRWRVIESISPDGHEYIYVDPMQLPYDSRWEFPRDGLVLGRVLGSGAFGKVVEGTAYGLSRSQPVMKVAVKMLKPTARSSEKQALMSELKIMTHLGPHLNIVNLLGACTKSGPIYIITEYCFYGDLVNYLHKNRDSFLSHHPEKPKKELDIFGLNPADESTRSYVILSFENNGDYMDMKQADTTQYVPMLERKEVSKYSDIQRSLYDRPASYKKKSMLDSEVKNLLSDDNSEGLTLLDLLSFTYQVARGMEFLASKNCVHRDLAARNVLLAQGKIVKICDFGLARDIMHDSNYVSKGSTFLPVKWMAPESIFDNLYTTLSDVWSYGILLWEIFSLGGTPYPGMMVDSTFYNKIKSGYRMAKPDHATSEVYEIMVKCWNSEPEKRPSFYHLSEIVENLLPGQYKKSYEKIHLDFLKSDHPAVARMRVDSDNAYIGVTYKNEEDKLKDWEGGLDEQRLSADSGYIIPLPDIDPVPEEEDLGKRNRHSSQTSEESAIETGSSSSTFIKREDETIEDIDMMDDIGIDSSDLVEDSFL
Method: as §1, §2, §3, §4

[6] = target: T4, BCRP (BCRP-MDCKII monolayer) (Homo sapiens, UniProt Q9UNQ0); assay: MDCKII-BCRP bidirectional transport assay; assay type: in vitro ADME; details: for MDCK-BCRP: Papp A-B: apical to basolateral
T4 construct: host or cells: MDCKII (canine kidney) cells
T4 sequence (Q9UNQ0 1-655): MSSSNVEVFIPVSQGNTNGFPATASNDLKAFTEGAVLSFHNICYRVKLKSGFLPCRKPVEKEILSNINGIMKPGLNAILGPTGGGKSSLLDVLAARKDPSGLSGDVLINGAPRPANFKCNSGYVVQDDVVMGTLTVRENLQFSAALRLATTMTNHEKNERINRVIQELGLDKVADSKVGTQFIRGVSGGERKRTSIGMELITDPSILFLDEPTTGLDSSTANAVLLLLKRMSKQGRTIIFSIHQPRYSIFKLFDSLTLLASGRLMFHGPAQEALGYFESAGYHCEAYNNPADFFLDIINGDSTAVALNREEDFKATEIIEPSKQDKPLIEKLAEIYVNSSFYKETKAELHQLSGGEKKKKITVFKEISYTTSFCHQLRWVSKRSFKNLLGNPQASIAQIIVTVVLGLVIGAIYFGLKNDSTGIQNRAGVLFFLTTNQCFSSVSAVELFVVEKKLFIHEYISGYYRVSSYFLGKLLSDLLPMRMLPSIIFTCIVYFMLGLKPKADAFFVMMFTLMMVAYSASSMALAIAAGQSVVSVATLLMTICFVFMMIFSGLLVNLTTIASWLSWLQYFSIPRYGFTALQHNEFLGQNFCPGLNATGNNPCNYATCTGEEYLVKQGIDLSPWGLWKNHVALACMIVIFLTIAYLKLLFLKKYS
Outline: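 Efflux ratios were derived from Papp values, alongside recovery, with compounds quantified by LC-MS/MS. Both directions were tested in duplicate across BCRP-MDCKII monolayers used on days 12–15. Incubation ran 120 min at 37° C, 5% CO2, after a 15 min preincubation in assay buffer.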

T1 sequence (P10721 26-976): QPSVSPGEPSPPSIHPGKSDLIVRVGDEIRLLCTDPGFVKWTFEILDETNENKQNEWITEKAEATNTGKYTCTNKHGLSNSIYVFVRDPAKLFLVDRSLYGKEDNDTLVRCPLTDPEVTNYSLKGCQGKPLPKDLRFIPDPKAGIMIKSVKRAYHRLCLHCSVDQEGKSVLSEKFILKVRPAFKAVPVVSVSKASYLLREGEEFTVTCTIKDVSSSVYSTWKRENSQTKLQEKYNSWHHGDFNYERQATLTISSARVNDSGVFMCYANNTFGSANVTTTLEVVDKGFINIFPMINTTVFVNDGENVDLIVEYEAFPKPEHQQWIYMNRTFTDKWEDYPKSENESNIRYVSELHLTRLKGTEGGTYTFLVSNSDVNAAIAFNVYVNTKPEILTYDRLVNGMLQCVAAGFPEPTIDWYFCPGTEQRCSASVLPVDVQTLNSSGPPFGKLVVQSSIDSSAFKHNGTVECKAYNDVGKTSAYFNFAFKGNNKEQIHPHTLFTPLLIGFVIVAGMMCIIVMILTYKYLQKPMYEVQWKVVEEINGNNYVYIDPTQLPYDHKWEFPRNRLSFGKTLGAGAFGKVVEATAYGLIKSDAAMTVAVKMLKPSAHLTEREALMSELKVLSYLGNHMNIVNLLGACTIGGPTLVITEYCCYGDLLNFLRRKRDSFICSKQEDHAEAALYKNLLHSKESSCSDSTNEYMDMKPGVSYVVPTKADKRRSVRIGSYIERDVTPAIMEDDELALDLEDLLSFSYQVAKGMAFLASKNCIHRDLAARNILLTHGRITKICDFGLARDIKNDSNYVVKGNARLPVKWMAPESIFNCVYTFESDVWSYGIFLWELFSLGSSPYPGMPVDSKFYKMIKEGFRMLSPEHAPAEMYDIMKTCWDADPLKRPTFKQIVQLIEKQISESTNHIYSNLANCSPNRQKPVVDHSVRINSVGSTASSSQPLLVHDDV

Compound | IC50 [1] [nM] | IC50 [2] [nM] | IC50 [3] [nM] | Solubility (μM) [4] | IC50 [5] [nM] | MDCK-BCRP: Efflux Ratio [6] | MDCK-BCRP: Papp A-B [6]
COC(=O)CS(=O)(=O)N1CC(c2nc(-c3ccc(C)c(NC(=O)c4cnc5ccccn45)c3)no2)C1 [Compound I-236] | 50 to 500 | 500 to 5000 | ≤ 50 | *** (a solubility greater than 2 μM and less than or equal to 10 μM) | 5000 to 30000 |  | 
Cc1ccc(-c2noc(-c3ccccn3)n2)cc1NC(=O)c1cnc2ccccn12 [Compound I-272] |  | 50 to 500 | ≤ 50 | **** (a solubility less than or equal to 2 μM) | 500 to 5000 | 3.4 | 6.58 10^−6 cm/s
COC(=O)CS(=O)(=O)N1CC[C@H]1c1nc(-c2ccc(C)c(NC(=O)c3cnc4ccccn34)c2)no1 [Compound I-188] |  | 50 to 500 | ≤ 50 | *** (a solubility greater than 2 μM and less than or equal to 10 μM) | 50 to 500 |  | 
Cc1ccc(-c2noc(C3CC(Oc4ccccc4)C3)n2)cc1NC(=O)c1cnc2ccccn12 (stereo not drawn) [Compound I-347] |  | 50 to 500 | ≤ 50 | **** (a solubility less than or equal to 2 μM) | 500 to 5000 | 1.28 | 0.17 10^−6 cm/s
Cc1ccc(-c2noc([C@@H]3CCN3S(=O)(=O)C3CCOCC3)n2)cc1NC(=O)c1cnc2ccccn12 [Compound I-187] |  | 50 to 500 | 50 to 500 | ** (a solubility greater than 10 μM and less than or equal to 50 μM) | 50 to 500 |  | 
COC1(C(F)F)CC(c2nc(-c3ccc(C)c(NC(=O)c4cnc5ccccn45)c3)no2)C1 (stereo not drawn) [Compound I-325] |  | ≤ 50 | ≤ 50 | **** (a solubility less than or equal to 2 μM) | 50 to 500 | 1.39 | 11.4 10^−6 cm/s
CCS(=O)(=O)N1CC[C@@H]1c1nc(-c2ccc(C)c(NC(=O)c3cnc4ccccn34)c2)no1 [Compound I-234] | 50 to 500 | ≤ 50 | ≤ 50 | ** (a solubility greater than 10 μM and less than or equal to 50 μM) | 50 to 500 |  | 
COC(=O)N1CC(c2nc(-c3ccc(C)c(NC(=O)c4cnc5cc(COCC(F)(F)F)ccn45)c3)no2)C1 [Compound I-128] |  | 50 to 500 | ≤ 50 | **** (a solubility less than or equal to 2 μM) | 5000 to 30000 |  | 
Cc1ccc(-c2noc([C@H]3C[C@@H]3F)n2)cc1NC(=O)c1cnc2cc(N3CCCCC3)ccn12 [Compound I-305] |  | ≤ 50 | ≤ 50 | **** (a solubility less than or equal to 2 μM) | 50 to 500 |  | 
Cc1nc(-c2ccc(C)c(NC(=O)c3cnc4ccc(NCCO)cn34)c2)no1 [Compound I-176] |  | ≤ 50 | ≤ 50 | ** (a solubility greater than 10 μM and less than or equal to 50 μM) | 50 to 500 |  | 
Cc1ccc(-c2noc(C3CCN3S(C)(=O)=O)n2)cc1NC(=O)c1cnc2ccccn12 (stereo not drawn) [Compound I-331] |  | ≤ 50 | ≤ 50 | ** (a solubility greater than 10 μM and less than or equal to 50 μM) | 50 to 500 |  | 
Cc1ccc(-c2noc([C@@H]3CCC(C)(C)N3)n2)cc1NC(=O)c1cnc2ccccn12 (racemic) [Compound I-232] | 50 to 500 | ≤ 50 | ≤ 50 | ** (a solubility greater than 10 μM and less than or equal to 50 μM) | 50 to 500 |  | 
Cc1ccc(-c2noc([C@@H]3CCN3CC(F)(F)F)n2)cc1NC(=O)c1cnc2ccccn12 (racemic) [Compound I-178] |  | ≤ 50 | ≤ 50 | **** (a solubility less than or equal to 2 μM) | 50 to 500 |  | 
Cc1ccc(-c2noc([C@H](C)NS(C)(=O)=O)n2)cc1NC(=O)c1cnc2ccccn12 [Compound I-147] |  | 50 to 500 | ≤ 50 | ** (a solubility greater than 10 μM and less than or equal to 50 μM) | 5000 to 30000 |  | 
Cc1ccc(-c2noc([C@@H]3CCN3C3CC3)n2)cc1NC(=O)c1cnc2ccccn12 (racemic) [Compound I-177] |  | 50 to 500 | ≤ 50 | **** (a solubility less than or equal to 2 μM) | 50 to 500 |  | 
Cc1ccc(-c2noc(CC(O)C(F)(F)F)n2)cc1NC(=O)c1cnc2ccccn12 (racemic) [Compound I-183] |  | 50 to 500 | 50 to 500 | **** (a solubility less than or equal to 2 μM) | 5000 to 30000 |  | 
Cc1ccc(-c2noc([C@H]3CCN3C3CCC3)n2)cc1NC(=O)c1cnc2ccccn12 [Compound I-193] |  | ≤ 50 | ≤ 50 | **** (a solubility less than or equal to 2 μM) | 50 to 500 |  | 
Cc1ccc(-c2noc([C@H]3C[C@@H]3F)n2)cc1NC(=O)c1cnc2ccc(N3CCC3)cn12 [Compound I-291] |  | ≤ 50 | ≤ 50 | *** (a solubility greater than 2 μM and less than or equal to 10 μM) | 50 to 500 |  | 
Cc1ccc(-c2noc([C@@H]3CCN3S(=O)(=O)c3ccccc3)n2)cc1NC(=O)c1cnc2ccccn12 [Compound I-186] |  | 50 to 500 | 50 to 500 | *** (a solubility greater than 2 μM and less than or equal to 10 μM) | 500 to 5000 |  | 
COCCN1CC[C@H]1c1nc(-c2ccc(C)c(NC(=O)c3cnc4ccccn34)c2)no1 (racemic) [Compound I-179] |  | 500 to 5000 | 50 to 500 | * (a solubility greater than 50 μM) | 5000 to 30000 |  | 
Cc1ccc(-c2noc([C@H](C)NS(=O)(=O)c3cnn(C)c3)n2)cc1NC(=O)c1cnc2ccccn12 (racemic) [Compound I-181] |  | ≤ 50 | ≤ 50 | * (a solubility greater than 50 μM) | 500 to 5000 |  | 
Cc1ccc(-c2noc([C@H]3CCN3C(C)C)n2)cc1NC(=O)c1cnc2ccccn12 [Compound I-194] |  | ≤ 50 | ≤ 50 | *** (a solubility greater than 2 μM and less than or equal to 10 μM) | 50 to 500 |  | 
Cc1ccc(Nc2ccn3c(C(=O)Nc4cc(-c5noc([C@H]6C[C@@H]6F)n5)ccc4C)cnc3c2)cc1 [Compound I-302] |  | ≤ 50 | ≤ 50 | **** (a solubility less than or equal to 2 μM) | ≤ 50 |  | 
O=C(Nc1cc(-c2noc([C@H]3CC(F)(F)CN3)n2)ccc1Cl)c1cnc2ccccn12 [Compound I-192] |  | 50 to 500 | ≤ 50 | **** (a solubility less than or equal to 2 μM) | 500 to 5000 |  | 
